Measurements reported in patent publication US4336389A, “2-Substituted-4-aryl-5-thiazolecarboxylic acids and their derivatives as safening agents” (Monsanto Company, priority 1978, dated 1982).

Assays:
Format in all cases: in vivo
Panicum = assay: Percent inhibition of panicum, mixture incorporated in soil cover layer (Example 19, Table V); conditions: ~21 days
Excerpt: (§1) 5.08 cm. of a good grade of top soil is placed in a 7.62 cm. deep plastic pot. A predetermined number of weed seeds and rice seeds are applied to the soil surface. Butachlor and ethyl 2-chloro-4-phenyl-5-thiazolecarboxylate are applied to a soil cover layer as a mixture and incorporated by shaking the treated soil cover layer in a plastic bag. The cover layers were then placed on the pre-seeded pots. The plants are observed at the end of approximately 21 days and the results in terms of percent inhibition recorded. For each test, pots are prepared containing soil treated only with butachlor. For each test, pots are prepared containing soil treated only with the safening agent. Pots are also prepared with untreated soil.

rice [1] = assay: Safening effect against butachlor injury to pre-soaked rice, soil surface application, flooded pots (Example 16, Table II); set-up: key: herbicide injury alone + safener injury alone (max 100) minus combined injury; conditions: ~21 days, mean of two replicates
Protocol: (§2) A good grade of top soil is placed in a container and compacted to a depth of approximately 1.27 cm. from the top of said container. A predetermined number of rice seeds to be tested are placed on top of the soil. A quantity of soil sufficient to substantially fill the container is measured and placed in a second container. A measured quantity of the safening agent dispersed or dissolved in a suitable carrier is applied to the soil in the second container. A measured quantity of butachlor dispersed or dissolved in a suitable carrier is then sprayed on the soil already treated with the safening agent. The soil containing the safening agent and herbicide is thoroughly mixed. This mixing is sometimes referred to as incorporation of the herbicide and safening agent into the soil. The mixing or incorporation provides a substantially uniform distribution of the safening agent and herbicide throughout the soil. The seeds are covered with the soil containing the safening agent and herbicide and the pans are leveled. The pans are then placed on a sand bench in the greenhouse and watered from below as needed. The plants are observed at the end of approximately 21 days and the results in terms of percent inhibition of each seed lot are recorded. For each test series a pan of plants is also prepared containing no herbicide and no safening agent as a control. Additionally, for each test, a pan of plants is prepared with soil covering the seed containing no herbicide and only the measured amount of safening agent being incorporated into the soil covering the seeds to ascertain any herbicidal effect of the safening agent alone. For each series of tests the herbicidal effect of the herbicide is observed from pans of plants treated with the same quantity of herbicide alone. The "safening effect" is determined by adding the hericidal effect of the herbicide when applied alone to the herbicidal effect of the safening agent when applied alone (in no instance, however, will this sum be greater than 100) and substracting from that the herbicidal effect obtained when the herbicide and safening agent are incorporated into the soil as discussed above.
A good grade of top soil is placed in a plastic pot. A measured quantity of the safening agent dispersed or dissolved in a suitable carrier is sprayed on the soil surface. A measured quantity of butachlor herbicide dissolved in a solvent is sprayed on the soil surface. Presoaked rice is seeded into the pots that were previously flooded with water and the water level lowered below the soil surface for one week. The pots are flooded at least up to the soil surface for the duration of the test. The plants are observed at the end of approximately 21 days and the results in terms of the percent inhibition of rice is recorded. As in Example 15, for each test pots are prepared containing soil treated only with butachlor. For each test, pots are also prepared containing soil treated only with the safening agent. Pots are also prepared in which the soil is not treated with either the herbicide or the safening agent. The safening effect is determined in accordance with Example 15.
Table II summarizes the results obtained when the compounds of the invention were tested in accordance with the procedure of Example 16.

Barnyard Grass [2] = assay: Percent inhibition of barnyard grass, mixture incorporated in soil cover layer (Example 19, Table V); conditions: ~21 days
Excerpt: as §1

Crabgrass = assay: Percent inhibition of crabgrass, mixture incorporated in soil cover layer (Example 19, Table V); conditions: ~21 days
Excerpt: as §1

Foxtail = assay: Percent inhibition of foxtail, mixture incorporated in soil cover layer (Example 19, Table V); conditions: ~21 days
Excerpt: as §1

rice [3] = assay: Safening effect against butachlor injury to rice, safening agent and herbicide incorporated in soil (Example 15, Table I); set-up: key: herbicide-alone + safener-alone effect (max 100) minus combined effect; conditions: safening agent 8.96 kg/h, ~21 days
Protocol: as §2
Table I summarizes the results obtained when the compounds of the invention were tested in accordance with the procedure of Example 15.

rice [4] = assay: Percent inhibition of rice, mixture incorporated in soil cover layer (Example 19, Table V); conditions: ~21 days
Excerpt: as §1

rice [5] = assay: Inhibition of rice, safening agent and butachlor applied to soil surface, flooded pots (Example 18, Table IV); conditions: ~21 days, mean of two replicates
Protocol: (§3) 5.08 cm. of a good grade of top soil is placed in a 7.62 cm. deep plastic pot. A predetermined number of barnyard grass seeds are applied to the soil surface. A measured quantity of the safening agent and butachlor dispersed or dissolved in a suitable carrier is applied to the soil surface. Pre-soaked rice is seeded into the pots that were previously flooded with water. The water level is lowered below the soil surface for one week. The pots are flooded just above the soil surface for the duration of the test. The plants are observed at the end of approximately 21 days and the results in terms of percent inhibition recorded. For each test, pots are prepared containing soil treated only with butachlor. For each test, pots are prepared containing soil treated only with the safening agent. Pots are also prepared with untreated soil.

rice [6] = assay: Inhibition of rice by butachlor and safening agent sprayed on soil surface, flooded pots (Example 17, Table III); conditions: ~21 days, mean of two replicates
Protocol: as §3, with “agent” for “agent and butachlor”, “is sprayed on the soil surface. A measured quantity of butachlor herbicide dissolved in a solvent is sprayed on” for “is applied to”, “one week to allow barnyard grass to emerge.” for “one week.”, “prepared containing” for “prepared with”

Barnyard Grass [7] = assay: Inhibition of barnyard grass by butachlor and safening agent sprayed on soil surface, flooded pots (Example 17, Table III); conditions: ~21 days, mean of two replicates
Protocol: as §3, with “agent” for “agent and butachlor”, “is sprayed on the soil surface. A measured quantity of butachlor herbicide dissolved in a solvent is sprayed on” for “is applied to”, “one week to allow barnyard grass to emerge.” for “one week.”, “prepared containing” for “prepared with”

Barnyard Grass [8] = assay: Inhibition of barnyard grass, safening agent and butachlor applied to soil surface, flooded pots (Example 18, Table IV); conditions: ~21 days, mean of two replicates
Protocol: as §3

[9] = safening agent 8.96 kg/h + butachlor 2.24 kg/h
[10] = safening agent 8.96 kg/h + butachlor 4.48 kg/h
[11] = safening agent 8.96 kg/h + butachlor 8.96 kg/h
[12] = safening agent 0.07 kg/h + butachlor 0.07 kg/h
[13] = safening agent 0.07 kg/h + butachlor 0.28 kg/h
[14] = safening agent 0.07 kg/h + butachlor 1.12 kg/h
[15] = safening agent 0.28 kg/h + butachlor 0.07 kg/h
[16] = safening agent 0.28 kg/h + butachlor 0.28 kg/h
[17] = safening agent 0.28 kg/h + butachlor 1.12 kg/h
[18] = safening agent 1.12 kg/h + butachlor 0.07 kg/h
[19] = safening agent 1.12 kg/h + butachlor 0.28 kg/h
[20] = safening agent 1.12 kg/h + butachlor 1.12 kg/h

CCOC(=O)c1sc(Cl)nc1-c1ccccc1 [Example 1, Ethyl 2-Chloro-4-Phenyl-5-Thiazolecarboxylate]
Percent Inhibition, Panicum (Panicum; [9]): 100%
Percent Inhibition, Panicum (Panicum; [10]): 100%
Percent Inhibition, Panicum (Panicum; [11]): 100%
Percent Inhibition, Panicum (Panicum; safening agent alone 8.96 kg/h): 0%
Safening Effect (rice [1]; safening agent 1.12 kg/h, butachlor 0.14 kg/h): 78
Safening Effect (rice [1]; safening agent 1.12 kg/h, butachlor 0.56 kg/h): 99
Percent Inhibition, Barnyard Grass (Barnyard Grass [2]; [9]): 100%
Percent Inhibition, Barnyard Grass (Barnyard Grass [2]; [10]): 100%
Percent Inhibition, Barnyard Grass (Barnyard Grass [2]; [11]): 100%
Percent Inhibition, Barnyard Grass (Barnyard Grass [2]; safening agent alone 8.96 kg/h): 0%
Percent Inhibition, Crabgrass (Crabgrass; [9]): 100%
Percent Inhibition, Crabgrass (Crabgrass; [10]): 100%
Percent Inhibition, Crabgrass (Crabgrass; [11]): 100%
Percent Inhibition, Crabgrass (Crabgrass; safening agent alone 8.96 kg/h): 0%
Percent Inhibition, Foxtail (Foxtail; [9]): 100%
Percent Inhibition, Foxtail (Foxtail; [10]): 100%
Percent Inhibition, Foxtail (Foxtail; [11]): 100%
Percent Inhibition, Foxtail (Foxtail; safening agent alone 8.96 kg/h): 0%
Safening Effect (rice [3]; butachlor 4.48 kg/h): 75
Percent Inhibition, Rice (rice [4]; [9]): 8%
Percent Inhibition, Rice (rice [4]; [10]): 43%
Percent Inhibition, Rice (rice [4]; [11]): 45%
Percent Inhibition, Rice (rice [4]; safening agent alone 8.96 kg/h): 0%

CCOC(=O)c1sc(Cl)nc1-c1ccc(Cl)cc1 [Example 4, Ethyl 2-Chloro-4-p-Chlorophenyl-5-Thiazolecarboxylate]
% Inhibition, Rice (rice [5]; [12]): 5%
% Inhibition, Rice (rice [5]; [13]): 63%
% Inhibition, Rice (rice [5]; [14]): 88%
% Inhibition, Rice (rice [5]; [15]): 0%
% Inhibition, Rice (rice [5]; [16]): 30%
% Inhibition, Rice (rice [5]; [17]): 40%
% Inhibition, Rice (rice [5]; [18]): 0%
% Inhibition, Rice (rice [5]; [19]): 30%
% Inhibition, Rice (rice [5]; [20]): 88%
% Inhibition, Rice (rice [5]; safening agent alone 0.07 kg/h): 0%
% Inhibition, Rice (rice [5]; safening agent alone 0.28 kg/h): 0%
% Inhibition, Rice (rice [5]; safening agent alone 1.12 kg/h): 0%
Inhibition, Rice (rice [6]; [12]): 0%
Inhibition, Rice (rice [6]; [13]): 0%
Inhibition, Rice (rice [6]; [14]): 78%
Inhibition, Rice (rice [6]; [15]): 0%
Inhibition, Rice (rice [6]; [16]): 0%
Inhibition, Rice (rice [6]; [17]): 40%
Inhibition, Rice (rice [6]; [18]): 0%
Inhibition, Rice (rice [6]; [19]): 0%
Inhibition, Rice (rice [6]; [20]): 28%
Inhibition, Rice (rice [6]; safening agent alone 0.07 kg/h): 0%
Inhibition, Rice (rice [6]; safening agent alone 0.28 kg/h): 0%
Inhibition, Rice (rice [6]; safening agent alone 1.12 kg/h): 0%
Inhibition, Barnyard Grass (Barnyard Grass [7]; [12]): 99%
Inhibition, Barnyard Grass (Barnyard Grass [7]; [13]): 100%
Inhibition, Barnyard Grass (Barnyard Grass [7]; [14]): 100%
Inhibition, Barnyard Grass (Barnyard Grass [7]; [15]): 99%
Inhibition, Barnyard Grass (Barnyard Grass [7]; [16]): 99%
Inhibition, Barnyard Grass (Barnyard Grass [7]; [17]): 100%
Inhibition, Barnyard Grass (Barnyard Grass [7]; [18]): 99%
Inhibition, Barnyard Grass (Barnyard Grass [7]; [19]): 99%
Inhibition, Barnyard Grass (Barnyard Grass [7]; [20]): 100%
Inhibition, Barnyard Grass (Barnyard Grass [7]; safening agent alone 0.07 kg/h): 0%
Inhibition, Barnyard Grass (Barnyard Grass [7]; safening agent alone 0.28 kg/h): 0%
Inhibition, Barnyard Grass (Barnyard Grass [7]; safening agent alone 1.12 kg/h): 0%
Safening Effect (rice [1]; safening agent 0.56 kg/h, butachlor 0.07 kg/h): 30
Safening Effect (rice [1]; safening agent 0.56 kg/h, butachlor 0.28 kg/h): 70
Safening Effect (rice [1]; safening agent 0.56 kg/h, butachlor 1.12 kg/h): 32
% Inhibition, Barnyard Grass (Barnyard Grass [8]; [12]): 90%
% Inhibition, Barnyard Grass (Barnyard Grass [8]; [13]): 100%
% Inhibition, Barnyard Grass (Barnyard Grass [8]; [14]): 100%
% Inhibition, Barnyard Grass (Barnyard Grass [8]; [15]): 85%
% Inhibition, Barnyard Grass (Barnyard Grass [8]; [16]): 100%
% Inhibition, Barnyard Grass (Barnyard Grass [8]; [17]): 100%
% Inhibition, Barnyard Grass (Barnyard Grass [8]; [18]): 85%
% Inhibition, Barnyard Grass (Barnyard Grass [8]; [19]): 100%
% Inhibition, Barnyard Grass (Barnyard Grass [8]; [20]): 100%
% Inhibition, Barnyard Grass (Barnyard Grass [8]; safening agent alone 0.07 kg/h): 0%
% Inhibition, Barnyard Grass (Barnyard Grass [8]; safening agent alone 0.28 kg/h): 0%
% Inhibition, Barnyard Grass (Barnyard Grass [8]; safening agent alone 1.12 kg/h): 0%
Safening Effect (rice [3]; butachlor 6.72 kg/h): 85

CCCCOCN(C(=O)CCl)c1c(CC)cccc1CC [butachlor, 2-chloro-2',6'-diethyl-N-(butoxymethyl)acetanilide, reference compound]
% Inhibition, Rice (rice [5]; butachlor alone 0.07 kg/h): 64%
% Inhibition, Rice (rice [5]; butachlor alone 0.28 kg/h): 78%
% Inhibition, Rice (rice [5]; butachlor alone 1.12 kg/h): 100%
Inhibition, Rice (rice [6]; butachlor alone 0.07 kg/h): 31%
Inhibition, Rice (rice [6]; butachlor alone 0.28 kg/h): 74%
Inhibition, Rice (rice [6]; butachlor alone 1.12 kg/h): 98%
Percent Inhibition, Panicum (Panicum; butachlor alone 2.24 kg/h): 99%
Percent Inhibition, Panicum (Panicum; butachlor alone 4.48 kg/h): 100%
Percent Inhibition, Panicum (Panicum; butachlor alone 8.96 kg/h): 100%
Inhibition, Barnyard Grass (Barnyard Grass [7]; butachlor alone 0.07 kg/h): 99%
Inhibition, Barnyard Grass (Barnyard Grass [7]; butachlor alone 0.28 kg/h): 100%
Inhibition, Barnyard Grass (Barnyard Grass [7]; butachlor alone 1.12 kg/h): 100%
Percent Inhibition, Barnyard Grass (Barnyard Grass [2]; butachlor alone 2.24 kg/h): 100%
Percent Inhibition, Barnyard Grass (Barnyard Grass [2]; butachlor alone 4.48 kg/h): 100%
Percent Inhibition, Barnyard Grass (Barnyard Grass [2]; butachlor alone 8.96 kg/h): 100%
% Inhibition, Barnyard Grass (Barnyard Grass [8]; butachlor alone 0.07 kg/h): 100%
% Inhibition, Barnyard Grass (Barnyard Grass [8]; butachlor alone 0.28 kg/h): 100%
% Inhibition, Barnyard Grass (Barnyard Grass [8]; butachlor alone 1.12 kg/h): 100%
Percent Inhibition, Crabgrass (Crabgrass; butachlor alone 2.24 kg/h): 100%
Percent Inhibition, Crabgrass (Crabgrass; butachlor alone 4.48 kg/h): 100%
Percent Inhibition, Crabgrass (Crabgrass; butachlor alone 8.96 kg/h): 100%
Percent Inhibition, Foxtail (Foxtail; butachlor alone 2.24 kg/h): 100%
Percent Inhibition, Foxtail (Foxtail; butachlor alone 4.48 kg/h): 100%
Percent Inhibition, Foxtail (Foxtail; butachlor alone 8.96 kg/h): 100%
Percent Inhibition, Rice (rice [4]; butachlor alone 2.24 kg/h): 50%
Percent Inhibition, Rice (rice [4]; butachlor alone 4.48 kg/h): 78%
Percent Inhibition, Rice (rice [4]; butachlor alone 8.96 kg/h): 93%
